Like-named read-outs stand apart in the source and are kept apart here. Each block holds one molecule with its values, some of them ahead of it.
Assays:
mGlu7 and mGlu8 = settings: above 1 μM; cited from earlier work
[1] = test system: human neural stem cells (hNSCs); assay: Neuronal differentiation of human neural stem cells (TUJ-1 staining, concentration response curves); type: cell-based; settings: for EC50: Homo sapiens, Neural stem cell; for maximum neuronal differentiation percent of positive control: MKC-231 CRC 0.01-31.6 uM, azakenpaullone CRC 0.001-3.2 uM
From the text: Mitogen-free test media with a positive control for neuronal differentiation was used along with basal media without growth factors as a negative control. […]

[2] = target: acetylcholinesterase (AChE) (Homo sapiens, UniProt P22303); settings: cited from earlier work
[3] = agent alone, hNSCs, percentage of neuronal positive control, basal media subtracted, read-out: EC50 of neuronal differentiation, agent used alone

acetylcholinesterase (AChE), sequence (P22303 32-614, species assumed): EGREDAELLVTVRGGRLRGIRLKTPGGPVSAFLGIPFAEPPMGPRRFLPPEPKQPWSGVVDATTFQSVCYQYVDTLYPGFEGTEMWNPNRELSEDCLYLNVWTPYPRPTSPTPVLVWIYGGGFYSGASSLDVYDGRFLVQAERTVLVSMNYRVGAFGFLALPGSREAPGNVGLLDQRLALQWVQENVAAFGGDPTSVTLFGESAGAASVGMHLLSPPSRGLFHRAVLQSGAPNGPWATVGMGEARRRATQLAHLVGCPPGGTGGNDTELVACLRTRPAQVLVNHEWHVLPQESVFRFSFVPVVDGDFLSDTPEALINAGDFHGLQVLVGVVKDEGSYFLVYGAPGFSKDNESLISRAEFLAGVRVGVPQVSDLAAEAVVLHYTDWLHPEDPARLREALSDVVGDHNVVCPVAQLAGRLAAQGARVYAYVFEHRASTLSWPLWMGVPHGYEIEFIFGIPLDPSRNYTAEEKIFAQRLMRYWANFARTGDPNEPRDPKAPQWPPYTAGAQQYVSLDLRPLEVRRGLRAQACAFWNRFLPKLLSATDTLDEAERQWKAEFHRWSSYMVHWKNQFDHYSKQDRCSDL

SMILES: N[C@](CC1c2ccccc2Oc2ccccc21)(C(=O)O)[C@H]1C[C@@H]1C(=O)O [LY341495, (2S)-2-amino-2-(1S,2S-2-carboxycycloprop-1-yl)-3-(xanth-9-yl) propanoic acid]
activity against mGlu7 and mGlu8 at higher concentrations (mGlu7 and mGlu8): antagonist activity

SMILES: O=C1CC[C@@]2(O)[C@H]3Cc4ccc(O)c5c4[C@@]2(CCN3CC2CC2)[C@H]1O5 [naltrexone]
EC50 [1, 3]: 4.5 µM

EC50 [1, 3]: 3.6 µM
SMILES: CN(CCOc1ccc(CC2SC(=O)NC2=O)cc1)c1ccccn1 (stereo not drawn) [rosiglitazone]

SMILES: Cc1oc2nc3c(c(NC(=O)CN4CCCC4=O)c2c1C)CCCC3 [MKC-231, 2-(2-oxopyrrolidin-1-yl)-N-(2,3-dimethyl-5,6,7,8-tetrahydrofuro[2,3-b]-quinolin-4-yl)acetoamide]
EC50 [1, 3]: 8.6 µM | maximum neuronal differentiation percent of positive control ([1]; hNSCs): 53% | AChE inhibitory activity [2]: does not have such inhibitory activity

SMILES: Clc1ccc2c(c1)N=C(N1CCNCC1)c1ccccc1N2 [N-desmethylclozapine]
neurogenic activity ([1]; assays as disclosed herein): highly neurogenic

SMILES: O=C1Cc2c([nH]c3ccc(Br)cc23)-c2ncccc2N1 [azakenpaullone]
maximum neuronal differentiation percent of positive control ([1]; hNSCs): 120%

SMILES: Cc1onc(O)c1CC(N)C(=O)O (stereo not drawn) [AMPA, α-amino-3-hydroxy-5-methylisoxazole-4-propionic acid]
effect on differentiation at 0.316 μM ([1]; AMPA alone at 0.316 μM): no effect | EC50 ([1]; read-out: EC50 of neuronal differentiation, agent used alone): ~31.6 µM

EC50 ([1]; agent alone, hNSCs, extrapolated, read-out: EC50 of neuronal differentiation, agent used alone, estimated by extrapolation of the observed data): 4.4 µM
SMILES: C[C@]12CC[C@@H]3c4ccc(O)cc4CC[C@H]3[C@@H]1CC[C@@H]2O [estradiol]

EC50 [1, 3]: 0.003 µM
SMILES: CC(C)c1c(C(=O)Nc2ccccc2)c(-c2ccccc2)c(-c2ccc(F)cc2)n1CC[C@@H](O)C[C@@H](O)CC(=O)O [atorvastatin]

— patent publication US7998971B2, “Combinations containing a 4-acylaminopyridine derivative” (BrainCells Inc., priority 2006, dated 2011)
